{"source": "patent US8906897B2", "about": "“Antimicrobial agents based on hemin derivatives” (Obschestvo S Ogranichennoi Otvetstvennostiyu …, priority 2009, dated 2014)", "key": {"human leukocytes": {"tested_on": "human leukocytes", "experiment": "Cytotoxic activity against human leukocytes", "details": "for toxic effect on human blood leukocytes (in words): concentrations of up to 1 mM, 3 h", "method": "Total leukocytes were isolated from human blood by unforced sedimentation using freshly collected venous blood from a healthy donor.\nBlood (10 mL) added with 10 units/mL heparin was exposed for 2.5 h in the dark at a temperature of 15 to 18° C. A light-colored liquid supernatant (4 mL) was collected over the layer of sedimenting erythrocytes, washed three times with balanced Hanks's salt solution, and resuspended in the RPMI-1640 medium (added with 8% fetal bovine serum, 2 mM L-glutamine, and 10 mM HEPES; hereinafter, the complete medium).\nThe concentrations of leukocytes and erythrocytes in the suspension were determined by counts in Goryachev's chamber, after which the suspension was adjusted to a leukocyte concentration of (1.0±0.1)×10^6 cells/mL with the complete medium.\nTo determine the cytotoxicity of the tested compounds for human leukocytes, the cell suspension was transferred to wells of sterile 96-well plates, tested compounds were added with serial twofold dilutions (the range of tested concentrations was from 3.2 to 100 μM for GrD and gramicidin S; from 8 to 500 μM for compound XIII; and from 8 to 1000 μM for compounds V, VI, VII, VIII, IX, X, XI, XIV, XV, XIX, and Hem), and the mixture was carefully stirred. The experiment was performed in two replicas.\nAs controls served cells added with an equivalent amount of the solvent in which tested compounds were prepared, namely: water for compounds VII and X; an aqueous solution of DMSO for compounds V, VI, VIII, and IX; and DMSO for GrD, gramicidin S, Hem, XI, XIII, XIV, XV, and XIX. An additional control was an additive-free leukocyte suspension.\nCells were incubated with tested compounds for 3 h (37° C., 5% CO2, 100% humidity). Leukocyte death values were quantified using fluorescence microscopy. Staining with propidium iodide (it permeates only into dead cells nuclei) and Hoechst 33342 (it stains all nuclei) was used to recognize dead and living cells. Cells were incubated for 15 min in plates with propidium iodide and Hoechst 33342 (37° C., 5% CO2), and then the plates were placed under a microscope for analysis.\nThe dead cell fraction was derived from the fluorescence images of cells obtained in the blue (Hoechst 33342) and red (propidium iodide) spectral ranges using an Axio Observer (Zeiss, Germany) fluorescence microscope equipped with a 10× objective lens (Plan-Neofluar 10×/0.3). The following sets of fluorescence filters were used. For propidium iodide: a 530/585-nm bandpass excitation filter, a 600-nm cut-off dichroic minor, and a 615-nm longpass barrier filter for analysis. For Hoechst 33342: a 359/372-nm bandpass excitation filter, a 395-nm cut-off dichroic mirror, and a 397-nm longpass barrier filter for analysis.\nA digital camera recorded three types of cell images: (a) an image in the transmitted white light; (b) a blue fluorescence image obtained with UV excitation, and (c) a red fluorescence image obtained with green light excitation. At least four fields of view were photographed per well in various regions of a well."}, "[1]": {"tested_on": "Staphylococcus aureus No. 25923 ATCC", "experiment": "Specific activity against resistant bacterial strains", "assay_type": "cell-based", "details": "St. aureus 25923; 24 h, 36° C.", "method": "(§1) The tested agents were water-soluble hemin derivatives (compounds VII and XVIII) or DMSO-soluble derivatives (compounds VIII, XV, and XIV). Vancomycin was the reference compound. Each compound was tested in three replicas.\n(§2) Sterile single-use flat-bottomed 96-well plates, Petri dishes, pipettes, tips, and test tubes (Pan-Eco, Moscow) were used in the study.\n(§3) The nutritional media used were as follows. A working Mueller Hinton broth was prepared from dry media (Mueller Hinton broth, Acumedia, Baltimore) and sterilized by autoclaving at 121° C. for 15 min.\n(§4) Staphylococcus aureus was cultured on the Tripticase Soy Agar (BBL) commercially available dry medium. Enterococcus faecalis was cultured on the Columbia Agar Base (BBL) commercially available dry medium. These media were sterilized by autoclaving at 121° C. for 15 min.\n(§5) Bacterial inoculum was fixed and equal to 5×10^5 CFU/mL.\n(§6) For water-soluble compounds, wells from 2nd through 8th were added with the solvent (water) in an amount of 15 μL per well, then the 1st well was added with 30 μL of the stock solution of the tested compound in water with a concentration of 1×10^3M, and the concentration was adjusted to 0.007×10^3 M by serial twofold dilutions. A 10-μL portion was taken from every well, and 190 μL of the bacterial culture (10^5 CFU) was added per well.\n(§7) For DMSO-soluble compounds, wells from 2nd through 8th were added with the solvent (DMSO) in an amount of 10 μL per well, then the 1st well was added with 20 μL of the stock solution of the tested compound in […] with a concentration of 5×10^3M, and the concentration was adjusted to 0.039×10^3 M by serial twofold dilutions. A 2-μL portion was taken from each well, and 198 μL of the bacterial culture (10^5 CFU) was added per well.\n(§8) The control comprised wells free of tested compounds (culture growth control). In addition, purity control of nutritional media and solvents was used. Plates were incubated in a thermostat at 36° C. for 24 hours.\n(§9) Culture growth was evaluated visually by comparison of how microorganisms grew in the presence of tested compounds and in the absence of them. MSC (the minimal suppressing concentration) was set equal to the last dilution of a tested agent which suppressed bacterial culture growth."}, "[2]": {"tested_on": "Staphylococcus epidermidis No. 533", "experiment": "Specific activity against resistant bacterial strains", "assay_type": "cell-based", "details": "St. epiderm 533; 24 h, 36° C.", "method": "as §1, §2, §3, §4, §5, §6, §7, §8, §9"}, "[3]": {"tested_on": "Staphylococcus aureus No. 100 KC", "experiment": "Specific activity against resistant bacterial strains", "assay_type": "cell-based", "details": "St. aureus 100 KC; 24 h, 36° C.", "method": "as §1, §2, §3, §4, §5, §6, §7, §8, §9"}, "[4]": {"tested_on": "Enterococcus faecalis No. 559", "experiment": "Specific activity against resistant bacterial strains", "assay_type": "cell-based", "details": "Ent. faecalis 559; 24 h, 36° C.", "method": "as §1, §2, §3, §4, §5, §6, §7, §8, §9"}}, "data": [{"smiles": "C=CC1=C(C)c2cc3[n-]c(cc4[n-]c(cc5nc(cc1n2)C(C)=C5C=C)c(C)c4CCC(=O)O)c(CCC(=O)O)c3C.[Cl-].[Fe+3]", "note": "[Hem, hemin]", "values": [{"measurement": "Death of leukocytes in the presence of 1 mM of compound", "setting": "human leukocytes; 3 h incubation", "result": "40 ± 2", "unit": "%"}, {"measurement": "Death of leukocytes in the presence of 1 mM of compound", "setting": "human leukocytes; 3 h incubation, listed as hemin", "result": 40, "unit": "%"}, {"measurement": "MICs for hemin derivatives against Gr+ strains", "setting": "[1]", "result": ">1e-05", "unit": "M"}, {"measurement": "MICs for hemin derivatives against Gr+ strains", "setting": "[2]", "result": ">10", "unit": "µM"}, {"measurement": "MICs for hemin derivatives against Gr+ strains", "setting": "[3]", "result": ">10", "unit": "µM"}, {"measurement": "MICs for hemin derivatives against Gr+ strains", "setting": "[4]", "result": ">10", "unit": "µM"}]}, {"smiles": "C=CC1=C(C)c2cc3[n-]c(cc4nc(cc5[n-]c(cc1n2)c(C)c5CCC(=O)N[C@@H](CCC(=O)N[C@@H](CCCNC(=N)N)C(=O)OC)C(=O)N[C@@H](CCCNC(=N)N)C(=O)OC)C(CCC(=O)N[C@@H](CCC(=O)N[C@@H](CCCNC(=N)N)C(=O)OC)C(=O)N[C@@H](CCCNC(=N)N)C(=O)OC)=C4C)c(C)c3C=C.[Cl-].[Fe+3]", "note": "[Compound XVIII, 6,7-bis[bis(N^α-L-Arginyl Methyl Ester)-L-Glutamyl]-Protohemin IX]", "values": [{"measurement": "MICs for hemin derivatives against Gr+ strains", "setting": "[1]", "result": "7.8e-07", "unit": "M"}, {"measurement": "MICs for hemin derivatives against Gr+ strains", "setting": "[2]", "result": 0.78, "unit": "µM"}, {"measurement": "MICs for hemin derivatives against Gr+ strains", "setting": "[3]", "result": 1.56, "unit": "µM"}, {"measurement": "MICs for hemin derivatives against Gr+ strains", "setting": "[4]", "result": 0.78, "unit": "µM"}]}, {"smiles": "C=CC1=C(C)c2cc3[n-]c(cc4nc(cc5[n-]c(cc1n2)c(C)c5CCC(=O)NCCO)C(CCC(=O)NCCO)=C4C)c(C)c3C=C.[Cl-].[Fe+3]", "note": "[Compound XIV, Protohemin IX 6,7-bis-N-(2-Hydroxyethyl)amide]", "values": [{"measurement": "Death of leukocytes in the presence of 1 mM of compound", "setting": "human leukocytes; 3 h incubation", "result": "17.5 ± 0.7", "unit": "%"}, {"measurement": "concentration at which a weak toxic effect on leukocytes appears", "setting": "human leukocytes; 3 h incubation", "result": "~1000", "unit": "µM"}, {"measurement": "MICs for hemin derivatives against Gr+ strains", "setting": "[1]", "result": "5.21e-06", "unit": "M"}, {"measurement": "MICs for hemin derivatives against Gr+ strains", "setting": "[2]", "result": 5.21, "unit": "µM"}, {"measurement": "MICs for hemin derivatives against Gr+ strains", "setting": "[3]", "result": ">50", "unit": "µM"}, {"measurement": "MICs for hemin derivatives against Gr+ strains", "setting": "[4]", "result": 6.25, "unit": "µM"}]}, {"smiles": "C=CC1=C(C)c2cc3[n-]c(cc4nc(cc5[n-]c(cc1n2)c(C)c5CCC(=O)N[C@@H](CCCNC(=N)N)C(=O)OC)C(CCC(=O)N[C@@H](CCCNC(=N)N)C(=O)OC)=C4C)c(C)c3C=C.[Cl-].[Fe+3]", "note": "[VII]", "values": [{"measurement": "Death of leukocytes in the presence of 1 mM of compound", "setting": "human leukocytes; 3 h incubation", "result": "8.0 ± 0.8", "unit": "%"}, {"measurement": "toxic effect on human blood leukocytes (in words)", "setting": "human leukocytes", "result": "did not cause the death"}, {"measurement": "MICs for hemin derivatives against Gr+ strains", "setting": "[1]", "result": "2.5. ×10^−5 M"}, {"measurement": "MICs for hemin derivatives against Gr+ strains", "setting": "[2]", "result": 25, "unit": "µM"}, {"measurement": "MICs for hemin derivatives against Gr+ strains", "setting": "[3]", "result": 50, "unit": "µM"}, {"measurement": "MICs for hemin derivatives against Gr+ strains", "setting": "[4]", "result": 25, "unit": "µM"}]}, {"smiles": "C=CC1=C(C)c2cc3[n-]c(cc4nc(cc5[n-]c(cc1n2)c(C)c5CCC(=O)N[C@@H](CO)C(=O)OC)C(CCC(=O)N[C@@H](CO)C(=O)OC)=C4C)c(C)c3C=C.[Cl-].[Fe+3]", "note": "[VIII]", "values": [{"measurement": "Death of leukocytes in the presence of 1 mM of compound", "setting": "human leukocytes; 3 h incubation", "result": "6.1 ± 0.3", "unit": "%"}, {"measurement": "toxic effect on human blood leukocytes (in words)", "setting": "human leukocytes", "result": "did not cause the death"}, {"measurement": "MICs for hemin derivatives against Gr+ strains", "setting": "[1]", "result": "2.6e-06", "unit": "M"}, {"measurement": "MICs for hemin derivatives against Gr+ strains", "setting": "[2]", "result": 5.21, "unit": "µM"}, {"measurement": "MICs for hemin derivatives against Gr+ strains", "setting": "[3]", "result": 6.25, "unit": "µM"}, {"measurement": "MICs for hemin derivatives against Gr+ strains", "setting": "[4]", "result": 3.12, "unit": "µM"}]}]}
